The record followed here is PubChem BioAssay (NCI).

Each structure is given as a SMILES string.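 Five compound concentrations were applied to cells in 96-well plates for 48 hours; endpoints were derived by simple linear interpolation of the resulting dose-response curve. TGI denotes the concentration required for complete inhibition of growth.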 Where only a bound is given, the exact number is not on record here.

Holding throughout (test): NCI anticancer screen, dose series, 48 h
Test [1] concerns NCI-H226 lung.
Test [2] relates to DU-145 prostate.
For test [3], the system named is HCT-116 colon.
Test [4] has as its system HCT-15 colon.
Test [5] has as its system UACC-257 melanoma.
In test [6] the test system is HL-60(TB) leukemia.
Test [7] deals with SF-539 CNS.
The subject of test [8] is MDA-N.
The subject of test [9] is TK-10 renal.
Test [10] deals with RPMI-8226 leukemia.
Test [11] concerns CAKI-1 renal.
Test [12] deals with OVCAR-3 ovarian.
Test [13] relates to HT29 colon.
Test [14] concerns KM12 colon.
In test [15] the test system is NCI-H460 lung.
The test system of test [16] is BT-549 breast.
Test [17] deals with SK-MEL-2 melanoma.
Test [18] concerns NCI/ADR-RES ovarian.
Test [19] deals with COLO 205 colon.
For test [20], the system named is MDA-MB-435.

Turning to `COc1ccc2cc(Oc3ccc(Cl)cc3)c(=O)oc2c1`, the TGI in test [1], in test [2], in test [3], in [4], in [5] and in test [6] was greater than 100 µM in each case. Further, the TGI in test [7], in test [8], in test [9], in test [10], in test [11] and in test [12] was greater than 100 µM each time. The TGI in [13], in test [14], in test [15] and in [16] was greater than 100 µM in each case.

For `COC(=O)Nc1nc2ccc(S(=O)(=O)NC(CC(C)C)C(=O)OC)cc2[nH]1` (stereo not given), the TGI is greater than 100 µM in test [1]; 19.1 µM in test [3]; greater than 100 µM in test [17]; 59.6 µM in test [18]; greater than 100 µM in test [4]; 8.04 µM in test [6]. Further, the TGI in test [7] is 38.3 µM; in test [8] it was 2.18 µM; in test [9], 31.9 µM; in [10] it was greater than 100 µM; in test [11] it was greater than 100 µM; in test [12], 2.7 µM. The TGI was 59.3 µM in test [19]; 8.06 µM in [13]; 12.6 µM in [14]; greater than 100 µM in test [15]; greater than 100 µM in test [16].

`CCC(Sc1cc(Cl)c(C)cc1S(=O)(=O)Nc1nc(N)nc(N(C)C)n1)C(=O)O` (stereo not given): the TGI in test [1], in [2], in [3], in [17], in test [18] and in test [4] was greater than 10 µM in each case. Also, the TGI in [5], in test [6], in test [7], in test [8], in test [9] and in test [10] was greater than 10 µM each time. Further, the TGI in test [11], in [12], in test [19], in [13], in test [14] and in test [15] was greater than 10 µM throughout. This compound also gave a TGI in test [16] greater than 10 µM.

With `OC(CCN1CCCCC1)(c1ccccc1)c1ccccc1`, the TGI in test [2], in test [3], in test [17], in [18], in test [4] and in [8] was greater than 100 µM in each case. The TGI in [20], in test [9], in test [10], in test [11], in test [12] and in test [19] was greater than 100 µM each time. Besides, the TGI in test [13], in [14] and in [16] was greater than 100 µM in each case.

As for `CCN(CC)C(=C(C(Cl)=C(Cl)Cl)[N+](=O)[O-])N(CC)CC`, the TGI in test [1], in test [2], in test [3], in test [18], in test [4] and in [5] was greater than 100 µM each time. Further, the TGI in test [6], in test [7], in test [8], in test [9], in test [10] and in test [11] was greater than 100 µM in each case. The TGI in test [12], in test [19], in test [13], in [14], in test [15] and in test [16] was greater than 100 µM throughout.

As for `O=c1[nH]n(Cc2ccccc2Cl)c2ccc([N+](=O)[O-])cc12`, the TGI in [1], in [2], in test [3], in [17], in test [18] and in test [4] was greater than 100 µM throughout. Further, the TGI in [5], in test [6], in test [7], in test [8], in test [20] and in [9] was greater than 100 µM each time. The TGI in [10], in test [11], in test [12], in test [19], in test [13] and in test [14] was greater than 100 µM in each case. Also, in test [15], the TGI was greater than 100 µM.

Consider `O=C(O)c1ccc(P(=O)(O)c2ccc(C(=O)O)cc2Br)c(Br)c1`, for which the TGI in test [1], in [2], in test [3], in test [17], in test [4] and in [5] was greater than 100 µM in each case. The TGI in [6], in test [7], in [8], in [20], in test [9] and in [10] was greater than 100 µM throughout. Moreover, the TGI in test [11], in test [12], in [19], in [14] and in test [16] was greater than 100 µM in each case.

Regarding `CCN(CC)c1cc2c3c(c1)CCCN3CCC2`, the TGI in test [1], in test [2], in [3], in test [17], in test [18] and in test [4] was greater than 10 µM each time. The TGI in [5], in test [6], in test [7], in [8], in [20] and in test [9] was greater than 10 µM each time. Also, the TGI in test [10], in [11], in test [12], in test [19], in [13] and in test [14] was greater than 10 µM each time. The compound also gave a TGI in test [15] greater than 10 µM.
